{
  "source": "patent US11324706B2",
  "about": "“Composition for inhibiting growth of breast cancer stem cells containing phenylacetaldehyde” (JEJU NATIONAL UNIVERSITY INDUSTRY-ACADEMIC COOPERATION …, priority 2016, dated 2022)",
  "key": {"[1]": {"system": "MDA-MB-231 cells", "assay": "Cell proliferation (MTS) analysis, MDA-MB-231", "format": "cell-based, human", "conditions": "MDA-MB-231, 48 hours after PAA treatment", "procedure": "(§1) (FIGS. 1A, B and C) show chemical structures of PAA and viability of MCF-7 and MDA-MB-231 cells depending on PAA. MCF-7 and MDA-MB-231 cells were treated with increasing concentrations of PAA for 48 hours. Anti-proliferation effects of PAA were measured by MTS analysis.\n(§2) Proliferation rates of MCF-7 and MDA-MB-231 cells were measured using a CellTiter 96® aqueous one solution cell proliferation kit. MCF-7 and MDA-MB-231 cells were cultured in the presence of PAA (0.1, 0.2, 0.5, 1 and 2 mM) on a 96-well plate for 48 hours. In accordance with the manufacturer's protocol, absorbance at 490 nm was determined using a 96-well plate reader (Dynex Revelation, Dynex Ltd., Billingshurst, UK). All data was determined by measurement of three sets.\n(§3) In order to investigate anti-proliferation effects of PAA in human breast cancer cell lines, i.e., MCF-7 and MDA-MB-231, the cancer cell lines were treated with different concentrations of PAA and then MTS analysis was conducted."}, "[2]": {"system": "Nanog, Sox2, Oct4 and CD44 genes", "assay": "Real-time PCR of CSC markers in mammospheres", "format": "cell-based, human", "conditions": "β-actin internal control", "procedure": "In accordance with the manufacturer's instructions, the level of transcriptome was measured with one step SYBR PrimeScript RT-PCR kit (Takara, Tokyo, Japan) using SYBR green as a double-stranded DNA-specific dye. One-step RT-PCR reaction was conducted in the final volume of 20 μl per reaction containing 1 μg of total RNA, 10 μl of 2× one step SYBR RT-PCR buffer IV, 1 μl of PrimeScript 1 step enzyme mix II, and 10 μM of PCR forward primers and PCR reverse primers for CD44, NANOG, OCT4, SOX2, and β-actin. The forward and reverse primers are as follow: […]\nRelative expression amounts of mRNAs of target genes were calculated using a comparative CT method. At least three independent PCR procedures were conducted in accordance with statistical analysis. PCR products were normalized with β-actin genes, as an internal control."}, "[3]": {"system": "Cancer stem cells", "assay": "Formation of CSCs under PAA steam (scent)", "format": "cell-based", "conditions": "PAA steam (1 mM), 7 days", "procedure": "Cancer stem cells were cultured in the presence of PAA steam (1 mM) and vehicle (methanol) for 7 days.\nThen, formation of CSCs was analyzed by emission of PAA scent (FIG. 4C). As a result, PAA inhibited formation of CSCs. Volatile materials, i.e., PAA and phenylethanol, which are the most important for roses and tomatoes were derived from phenylalanine, as shown in FIG. 5A (FIG. 5A). In order to investigate whether or not phenylalanine-derived volatile materials, i.e., PAA and phenylethanol, and structural analogs (2- and 3-phenylpropionaldehydes) can inhibit formation of tumorspheres, these volatile materials were exposed to MCF-7."}, "[4]": {"system": "MCF-7 cells", "assay": "Cell proliferation (MTS) analysis, MCF-7", "format": "cell-based, human", "conditions": "MCF-7, 48 hours after PAA treatment", "procedure": "as §1, §2, §3"}, "[5]": {"system": "MDA-MB-231 cell-derived mammospheres", "assay": "Mammosphere formation, MDA-MB-231-derived", "format": "cell-based, human", "conditions": "PAA 0.05 and 0.1 mM, 7 days", "procedure": "The mammospheres were cultured together with PAA (0.05 and 0.1 mM) or DMSO. MCF-7 and MDA-MBB-231 cells were treated with PAA and DMSO during the culture period of 7 days.\nHuman breast cancer cells, i.e., MCF-7 and MDA-MB-231, were commercially obtained from American Type Culture Collection (ATCC; Manassas, Va., USA). MCF-7 and MDA-MB-231 cells were cultured in Dulbecco's modified essential medium (DMEM; Hyclone, Logan, Utah, USA) containing 10% fetal bovine serum (FBS; Hyclone), 100 U/mL of penicillin, and 100 μg/mL of streptomycin (Hyclone). The MCF-7 and MDA-MB-231 cells were maintained at 37° C. in a 5% CO2-containing humidified incubator. The cells were plated at a density of 1×10^6 on a 10 cm petri dish. […]\nAt 7 days of culture, the cell culture plate was disposed on a scanner (Epson Perfection V700 PHOTO, Epson Korea, Co, Seoul, Korea) to obtain an 8 bit gray scale image of mammospheres. […] The background signal of the image was negated using a critical algorithm and the selected image was automatically counted. Regarding the mammosphere formation analysis, formation efficiency of mammospheres (MFE, %) was determined in accordance with the number of mammospheres per well/the total number of cells plated per well×100."}, "[6]": {"system": "ROSs in MDA-MB-231 cells", "assay": "Measurement of ROS activity (ROS-Glo H2O2 assay)", "format": "cell-based, human", "procedure": "ROSs in cells were analyzed using a ROS-Glo™ H2O2 assay kit. PAA induced ROS production of breast cancers;\nCancer cells were cultured on a 96-well white plate and cultured together with PAA (0.5 mM) or DMSO for 24 hours. In accordance with the manufacturer's instructions, ROS was measured using an ROS-Glo™ H2O2 detection solution (Promega, Wis., USA). 100 μl of the ROS-Glo™ H2O2 detection solution was added to a 96-well white plate containing breast cancer cells, cultured at room temperature for 20 minutes, and relative luminance was recorded using a plate reader, luminometer, GloMax® Explorer (Promega, Wis., USA)."}, "[7]": {"system": "CD44high/CD24low cell populations of MDA-MB-231 cells", "assay": "Flow cytometric analysis of CD44 and CD24 expression", "format": "cell-based, human", "conditions": "MDA-MB-231, PAA 0.1 mM", "procedure": "For FACS analysis, 50,000 cells were obtained. Gating was based on control antibody;\nExpression of CD44 and CD24 in MDA-MB-231 cells was measured by FACS analysis. The cells were isolated and harvested using 1× trypsin/EDTA, and a million of cells were suspended, labelled with FITC-conjugated anti-human CD44 and PE-conjugated anti-human CD24 antibodies (BD Pharmingen, San Diego, Calif., USA) and cultured at 4° C. for 30 minutes. Then, the cells were washed with 1×PBS three times and analyzed by flow cytometry (Accuri C6, BD, San Diego, Calif., USA)."}},
  "data": [
    {"compound": "O=CCc1ccccc1", "note": "[PAA, phenylacetaldehyde]", "values": [
      {"measurement": "PAA concentration at which growth of the cell line was concentration-dependently inhibited", "setting": "[1]", "result": "≥ 100", "unit": "μm"},
      {"measurement": "expression of self-renewal genes such as Nanog, Sox2, Oct4, and CD44", "setting": "[2]", "result": "reduced"},
      {"measurement": "formation of CSCs by emission of PAA scent", "setting": "[3]", "result": "inhibited"},
      {"measurement": "PAA concentration at which growth of the cell line was concentration-dependently inhibited", "setting": "[4]", "result": "≥ 200", "unit": "μm"},
      {"measurement": "number of primary mammospheres derived from MDA-MB-231 cells", "setting": "[5]", "result": "reduced"},
      {"measurement": "ROS activity", "setting": "[6]", "result": "induced"},
      {"measurement": "subpopulation expressing CD44high/CD24low in breast cancer cells", "setting": "[7]", "result": "reduced"}
    ]}
  ]
}
